Laboratory results published in ChEMBL document CHEMBL1127142, “Novel conversion reaction of -lactam to -lactam. Synthesis of -lactam analogs of penam and penem antibiotics” (Bioorg Med Chem Lett, 1993).
Activity calls are given as the source filed them. The rule behind the calls is not given here.

Columns and labels:
[1] = Activity of compound tested against Gram positive bacteria at concentration of 100 ug/ml; Inactive; assay type: functional
Bacteria = assay: Activity of compound tested against Gram negative bacteria at concentration of 100 ug/ml; Inactive; assay type: functional, organism-based

SMILES	Activity [1]	Activity (Bacteria)
O=C(O)C1=C(C2CCCO2)S[C@@H]2[C@@H](C(=O)O)CC(=O)N12 (stereo partly drawn)	inactive	inactive
O=C(O)C1=C([C@H]2CCCO2)S[C@@H]2[C@H](C(=O)O)CC(=O)N12	inactive	inactive
CC1(C)S[C@@H]2[C@@H](C(=O)NCc3ccccc3)CC(=O)N2[C@H]1C(=O)O	inactive	inactive
O=C(O)C1=C([C@H]2CCCO2)S[C@@H]2[C@@H](C(=O)NCc3ccccc3)CC(=O)N12	inactive	inactive
